From patent US20050112573A1, “Method of detecting toxic substance” (priority 2001, published 2005)

Tested on: yeast genes (level of expressed mRNA)
Test: DNA chip analysis of expressed mRNA of yeast genes after 2 h culture with a toxic chemical substance
Format: cell-based, Saccharomyces cerevisiae S288C
Conditions: for The level of expressed mRNA in the presence of chemical substance/ (ratio to absence of chemical substance): stress protein genes, DNA chip
Outline: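 S. cerevisiae S288C grown at 25° C in YPD; toxicant added at log phase at growth-inhibitory, non-lethal levels for 2 h, untreated cells as control. Poly(A) mRNA reverse-transcribed with Cy3/Cy5-dUTP, hybridized to whole-genome chip at 65° C >12 h; value is fluorescence ratio versus untreated.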

C=CC=O [(14), acrolein]
The level of expressed mRNA in the presence of chemical substance/ in its absence, gene YDL078C (yeast gene YDL078C, ratio of DNA chip fluorescence intensity to that without chemical substance): 0.8
The level of expressed mRNA in the presence of chemical substance/ (in its absence), gene YDL215C (yeast gene YDL215C, ratio of DNA chip fluorescence intensity to that without chemical substance): 1.0
The level of expressed mRNA in the presence of chemical substance/The level of expressed mRNA in the absence of chemical substance (yeast gene YDL238C): 1.2
The level of expressed mRNA in the presence of chemical substance/The level of expressed mRNA in the absence of chemical substance (yeast gene YDR055W): 0.9
The level of expressed mRNA in the presence of chemical substance/ (in its absence), gene YDR073W (yeast gene YDR073W, ratio of DNA chip fluorescence intensity to that without chemical substance): 1.2
The level of expressed mRNA in the presence of chemical substance/ in its absence, gene YDR079W (yeast gene YDR079W, energy system protein genes, 2 h culture with the chemical, ratio to control without chemical): 1.5
The level of expressed mRNA in the presence of chemical substance/ (ratio to absence), gene YDR079W (yeast gene YDR079W, mitochondria-located protein genes, 2 h culture with chemical): 1.5
The level of expressed mRNA in the presence of chemical substance/The level of expressed mRNA in the absence of chemical substance (yeast gene YDR084C): 1.0
The level of expressed mRNA in the presence of chemical substance/The level of expressed mRNA in the absence of chemical substance (yeast gene YDR085C): 1.6
The level of expressed mRNA in the presence of chemical substance/The level of expressed mRNA in the absence of chemical substance (yeast gene YDR104C): 1.4
The level of expressed mRNA in the presence of chemical substance/The level of expressed mRNA in the absence of chemical substance (yeast gene YDR115W): 1.5
The level of expressed mRNA in the presence of chemical substance/The level of expressed mRNA in the absence of chemical substance (yeast gene YDR259C): 1.5
The level of expressed mRNA in the presence of chemical substance/ (in its absence), gene YDR297W (yeast gene YDR297W, ratio of DNA chip fluorescence intensity to that without chemical substance): 0.9
The level of expressed mRNA in the presence of chemical substance/The level of expressed mRNA in the absence of chemical substance (yeast gene YDR315C): 1.4
The level of expressed mRNA in the presence of chemical substance/The level of expressed mRNA in the absence of chemical substance (yeast gene YDR358W): 1.2
The level of expressed mRNA in the presence of chemical substance/ (ratio to absence), gene YDR377W (yeast gene YDR377W, mitochondria-located protein genes, 2 h culture with chemical): 1.4
The level of expressed mRNA in the presence of chemical substance/ (in its absence), gene YDR387C (yeast gene YDR387C, ratio of DNA chip fluorescence intensity to that without chemical substance): 0.9
The level of expressed mRNA in the presence of chemical substance/The level of expressed mRNA in the absence of chemical substance (yeast gene YDR388W): 0.6
The level of expressed mRNA in the presence of chemical substance/The level of expressed mRNA in the absence of chemical substance (yeast gene YDR432W): 0.5
The level of expressed mRNA in the presence of chemical substance/The level of expressed mRNA in the absence of chemical substance (yeast gene YDR481C): 0.9
The level of expressed mRNA in the presence of chemical substance/The level of expressed mRNA in the absence of chemical substance (yeast gene YDR510W): 1.9
The level of expressed mRNA in the presence of chemical substance/ (ratio to absence of chemical substance) (yeast gene YEL039C): 1.4
The level of expressed mRNA in the presence of chemical substance/The level of expressed mRNA in the absence of chemical substance (yeast gene YEL042W): 0.6
The level of expressed mRNA in the presence of chemical substance/The level of expressed mRNA in the absence of chemical substance (yeast gene YEL066W): 1.9
The level of expressed mRNA in the presence of chemical substance/ (in its absence), gene YER015W (yeast gene YER015W, ratio of DNA chip fluorescence intensity to that without chemical substance): 1.1
The level of expressed mRNA in the presence of chemical substance/The level of expressed mRNA in the absence of chemical substance (yeast gene YER039C): 1.2
The level of expressed mRNA in the presence of chemical substance/ (ratio to absence of chemical substance) (yeast gene YER057C): 1.4
The level of expressed mRNA in the presence of chemical substance/The level of expressed mRNA in the absence of chemical substance (yeast gene YER107C): 1.1
The level of expressed mRNA in the presence of chemical substance/The level of expressed mRNA in the absence of chemical substance (yeast gene YER130C): 0.8
The level of expressed mRNA in the presence of chemical substance/The level of expressed mRNA in the absence of chemical substance (yeast gene YFL028C): 1.6
The level of expressed mRNA in the presence of chemical substance/The level of expressed mRNA in the absence of chemical substance (yeast gene YFL043C): 1.5
The level of expressed mRNA in the presence of chemical substance/ (in its absence), gene YGL035C (yeast gene YGL035C, ratio of DNA chip fluorescence intensity to that without chemical substance): 1.1
The level of expressed mRNA in the presence of chemical substance/ (in its absence), gene YGL115W (yeast gene YGL115W, ratio of DNA chip fluorescence intensity to that without chemical substance): 1.2
The level of expressed mRNA in the presence of chemical substance/ (ratio to absence of chemical substance) (yeast gene YGL115W): 1.2
The level of expressed mRNA in the presence of chemical substance/The level of expressed mRNA in the absence of chemical substance (yeast gene YGL158W): 2.3
The level of expressed mRNA in the presence of chemical substance/ (ratio to absence), gene YGL187C (yeast gene YGL187C, mitochondria-located protein genes, 2 h culture with chemical): 0.9
The level of expressed mRNA in the presence of chemical substance/ (in its absence), gene YGL205W (yeast gene YGL205W, ratio of DNA chip fluorescence intensity to that without chemical substance): 1.0
The level of expressed mRNA in the presence of chemical substance/The level of expressed mRNA in the absence of chemical substance (yeast gene YGL229C): 1.0
The level of expressed mRNA in the presence of chemical substance/ in its absence, gene YGR062C (yeast gene YGR062C, energy system protein genes, 2 h culture with the chemical, ratio to control without chemical): 1.2
The level of expressed mRNA in the presence of chemical substance/ (ratio to absence), gene YGR062C (yeast gene YGR062C, mitochondria-located protein genes, 2 h culture with chemical): 1.2
The level of expressed mRNA in the presence of chemical substance/ (in its absence), gene YGR096W (yeast gene YGR096W, ratio of DNA chip fluorescence intensity to that without chemical substance): 1.2
The level of expressed mRNA in the presence of chemical substance/The level of expressed mRNA in the absence of chemical substance (yeast gene YGR136W): 1.1
The level of expressed mRNA in the presence of chemical substance/The level of expressed mRNA in the absence of chemical substance (yeast gene YGR189C): 0.9
The level of expressed mRNA in the presence of chemical substance/The level of expressed mRNA in the absence of chemical substance (yeast gene YGR213C): 1.0
The level of expressed mRNA in the presence of chemical substance/The level of expressed mRNA in the absence of chemical substance (yeast gene YGR257C): 0.9
The level of expressed mRNA in the presence of chemical substance/ (in its absence), gene YGR287C (yeast gene YGR287C, ratio of DNA chip fluorescence intensity to that without chemical substance): 1.1
The level of expressed mRNA in the presence of chemical substance/ (in its absence), gene YGR288W (yeast gene YGR288W, ratio of DNA chip fluorescence intensity to that without chemical substance): 1.1
The level of expressed mRNA in the presence of chemical substance/ (ratio to absence of chemical substance) (yeast gene YHL028W): 1.3
The level of expressed mRNA in the presence of chemical substance/ (ratio to absence of chemical substance) (yeast gene YHL046C): 1.4
The level of expressed mRNA in the presence of chemical substance/The level of expressed mRNA in the absence of chemical substance (yeast gene YHR004C): 0.8
The level of expressed mRNA in the presence of chemical substance/The level of expressed mRNA in the absence of chemical substance (yeast gene YHR071W): 1.6
The level of expressed mRNA in the presence of chemical substance/The level of expressed mRNA in the absence of chemical substance (yeast gene YHR139C): 2.5
The level of expressed mRNA in the presence of chemical substance/The level of expressed mRNA in the absence of chemical substance (yeast gene YHR142W): 1.2
The level of expressed mRNA in the presence of chemical substance/ (in its absence), gene YHR210C (yeast gene YHR210C, ratio of DNA chip fluorescence intensity to that without chemical substance): 1.0
The level of expressed mRNA in the presence of chemical substance/ (in its absence), gene YIL006W (yeast gene YIL006W, ratio of DNA chip fluorescence intensity to that without chemical substance): 1.0
The level of expressed mRNA in the presence of chemical substance/ (ratio to absence of chemical substance) (yeast gene YIL011W): 0.5
The level of expressed mRNA in the presence of chemical substance/The level of expressed mRNA in the absence of chemical substance (yeast gene YIL123W): 0.3
